{
  "source": "PubChem BioAssay AID2060493",
  "about": "(Molecular Pharmacology Branch, DTP, NCI, 2025)",
  "tested_on": "616215-338-R-J1-PDC tumor spheroids, viability",
  "test": "Anticancer human tumor 616215-338-R-J1-PDC patient-derived colon adenocarcinoma cell line growth inhibition [GQUAD]",
  "settings": "spheroids with HUVEC and MSC; for IC50: curve of first compound; for viability, T/C: stronger effect = lower value",
  "method_in_brief": "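Viability of tumor cells grown as complex spheroids with endothelial and stromal cells, exposed to drug combinations. Top concentration at or near clinical Cmax (else 10 microM), diluted in half-log increments.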",
  "data": [
    {"compound": "CCc1c2c(nc3ccc(O)cc13)-c1cc3c(c(=O)n1C2)COC(=O)[C@]3(O)CC", "note": "+ Cc1cnc(CNC(=O)c2c(=O)c3ccc(N4CCCN(C)CC4)nc3n3c2sc2ccccc23)cn1;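 also: spheroids exposed to agents for 7 days before readout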;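 as to viability, T/C: percent viability relative to DMSO vehicle control wells taken as 100%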", "values": [
      {"measurement": "IC50", "setting": "second compound 0.0316 µM", "value": 9.82, "unit": "nM"},
      {"measurement": "IC50", "setting": "second compound 0.1 µM", "value": 5.05, "unit": "nM"},
      {"measurement": "IC50", "setting": "second compound 0.316 µM", "value": "< 0.999", "unit": "nM"},
      {"measurement": "IC50", "setting": "second compound 1 µM", "value": "< 0.999", "unit": "nM"},
      {"measurement": "IC50", "setting": "second compound 3.16 µM", "value": "< 0.999", "unit": "nM"},
      {"measurement": "IC50", "setting": "second compound 10 µM", "value": "< 0.999", "unit": "nM"},
      {"measurement": "viability, T/C", "setting": "second compound 0.0316 µM, first compound 0.000999 µM", "value": 105, "unit": "%"},
      {"measurement": "viability, T/C", "setting": "second compound 0.0316 µM, first compound 0.00316 µM", "value": 79.5, "unit": "%"},
      {"measurement": "viability, T/C", "setting": "second compound 0.0316 µM, first compound 0.00999 µM", "value": 47.5, "unit": "%"},
      {"measurement": "viability, T/C", "setting": "second compound 0.0316 µM, first compound 0.0316 µM", "value": 30.2, "unit": "%"},
      {"measurement": "viability, T/C", "setting": "second compound 0.0316 µM, first compound 0.0999 µM", "value": 22.1, "unit": "%"},
      {"measurement": "viability, T/C", "setting": "second compound 0.0316 µM, first compound 0.316 µM", "value": 12.9, "unit": "%"},
      {"measurement": "viability, T/C", "setting": "second compound 0.1 µM, first compound 0.000999 µM", "value": 62.2, "unit": "%"},
      {"measurement": "viability, T/C", "setting": "second compound 0.1 µM, first compound 0.00316 µM", "value": 58.3, "unit": "%"},
      {"measurement": "viability, T/C", "setting": "second compound 0.1 µM, first compound 0.00999 µM", "value": 39.8, "unit": "%"},
      {"measurement": "viability, T/C", "setting": "second compound 0.1 µM, first compound 0.0316 µM", "value": 25.6, "unit": "%"},
      {"measurement": "viability, T/C", "setting": "second compound 0.1 µM, first compound 0.0999 µM", "value": 18.2, "unit": "%"},
      {"measurement": "viability, T/C", "setting": "second compound 0.1 µM, first compound 0.316 µM", "value": 9.44, "unit": "%"},
      {"measurement": "viability, T/C", "setting": "second compound 0.316 µM, first compound 0.000999 µM", "value": 49.3, "unit": "%"},
      {"measurement": "viability, T/C", "setting": "second compound 0.316 µM, first compound 0.00316 µM", "value": 37, "unit": "%"},
      {"measurement": "viability, T/C", "setting": "second compound 0.316 µM, first compound 0.00999 µM", "value": 24.6, "unit": "%"},
      {"measurement": "viability, T/C", "setting": "second compound 0.316 µM, first compound 0.0316 µM", "value": 31.4, "unit": "%"},
      {"measurement": "viability, T/C", "setting": "second compound 0.316 µM, first compound 0.0999 µM", "value": 13.5, "unit": "%"},
      {"measurement": "viability, T/C", "setting": "second compound 0.316 µM, first compound 0.316 µM", "value": 6.95, "unit": "%"},
      {"measurement": "viability, T/C", "setting": "second compound 1 µM, first compound 0.000999 µM", "value": 38.1, "unit": "%"},
      {"measurement": "viability, T/C", "setting": "second compound 1 µM, first compound 0.00316 µM", "value": 19.4, "unit": "%"},
      {"measurement": "viability, T/C", "setting": "second compound 1 µM, first compound 0.00999 µM", "value": 24.9, "unit": "%"},
      {"measurement": "viability, T/C", "setting": "second compound 1 µM, first compound 0.0316 µM", "value": 18.7, "unit": "%"},
      {"measurement": "viability, T/C", "setting": "second compound 1 µM, first compound 0.0999 µM", "value": 13.7, "unit": "%"},
      {"measurement": "viability, T/C", "setting": "second compound 1 µM, first compound 0.316 µM", "value": 0.14, "unit": "%"},
      {"measurement": "viability, T/C", "setting": "second compound 3.16 µM, first compound 0.000999 µM", "value": 20, "unit": "%"},
      {"measurement": "viability, T/C", "setting": "second compound 3.16 µM, first compound 0.00316 µM", "value": 25.2, "unit": "%"},
      {"measurement": "viability, T/C", "setting": "second compound 3.16 µM, first compound 0.00999 µM", "value": 21.1, "unit": "%"},
      {"measurement": "viability, T/C", "setting": "second compound 3.16 µM, first compound 0.0316 µM", "value": 14.4, "unit": "%"},
      {"measurement": "viability, T/C", "setting": "second compound 3.16 µM, first compound 0.0999 µM", "value": 17.8, "unit": "%"},
      {"measurement": "viability, T/C", "setting": "second compound 3.16 µM, first compound 0.316 µM", "value": 0.15, "unit": "%"},
      {"measurement": "viability, T/C", "setting": "second compound 10 µM, first compound 0.000999 µM", "value": 23.8, "unit": "%"},
      {"measurement": "viability, T/C", "setting": "second compound 10 µM, first compound 0.00316 µM", "value": 22, "unit": "%"},
      {"measurement": "viability, T/C", "setting": "second compound 10 µM, first compound 0.00999 µM", "value": 23.6, "unit": "%"},
      {"measurement": "viability, T/C", "setting": "second compound 10 µM, first compound 0.0316 µM", "value": 5.75, "unit": "%"},
      {"measurement": "viability, T/C", "setting": "second compound 10 µM, first compound 0.0999 µM", "value": 0.31, "unit": "%"},
      {"measurement": "viability, T/C", "setting": "second compound 10 µM, first compound 0.316 µM", "value": 0.21, "unit": "%"}
    ]}
  ]
}
